{"source": "patent US11529311B2", "about": "“Method of using nebulized alcohol for analgesia” (BN Intellectual Properties, Inc., priority 2021, dated 2022)", "remark": "listed apart in the source", "key": {"[1]": {"method": "Example 1: A first patient treatment example is that of an adult experiencing pain from multiple neck injuries and replaced vertebrae who was treating pain using 60 mg Oxycontin® (30 mg in morning and night) and 6 doses of Percocet® daily as needed before ethanol treatment. The patient's opioid usage history spanned 11 years. The first patient also took Ambien® at night to promote sleep.\nThe first patient takes nebulized alcohol in the morning and at bedtime (about 3-4 inhalations each time), wakes in the night to use the bathroom, and occasionally takes nebulized alcohol during the night."}, "[2]": {"conditions": "adult, 1-2 inhalations", "text": "Example 2: A second patient treatment is of an adult experiencing sinus headaches using nebulized ethanol solution."}, "[3]": {"method": "Example 3: A third patient experienced acute pain from a chronic back injury which occurred during a car accident approximately 40 years earlier. The patient experienced acute pain for about 8 hours, requiring assistance to lower themself to sit in a chair, to stand up from the chair, and to walk about.", "remark": "listed apart in the source"}, "[4]": {"conditions": "over the course of ethanol treatment"}, "[5]": {"conditions": "patient report, result of reduced Oxycontin doses"}, "[6]": {"conditions": "patient report, nebulized alcohol morning and bedtime"}}}
{"substance": "Ethyl alcohol [nebulized ethanol]", "values": [{"measurement": "reported levels of pain", "setting": "[1]; adult male, 11 years of opioid use, over the course of ethanol treatment, about 3-4 inhalations morning and bedtime", "value": "significantly lower"}, {"measurement": "Oxycontin usage", "setting": "[1]; after 6 months of ethanol therapy, 60 mg daily before treatment", "value": 10, "unit": "mg/day"}, {"measurement": "Percocet usage", "setting": "[1]; after 6 months of ethanol therapy, 6 doses daily as needed before treatment", "value": "no Percocet® during the day"}, {"measurement": "opioid usage", "setting": "[1]; [4]", "value": "reduced"}, {"measurement": "physical stamina, physical performance (kidney and bowel function), and mental acuity", "setting": "[1]; [4]", "value": "improved"}, {"measurement": "alertness, attention, and mental acuity", "setting": "[1]; [5]", "value": "increased"}, {"measurement": "bowel function", "setting": "[1]; [5]", "value": "increased bowel function"}, {"measurement": "mobility", "setting": "[1]; [5]", "value": "greater mobility (able to resume dance activities)"}, {"measurement": "posture", "setting": "[1]; [5]", "value": "improved posture (able to hold head in a vertical position)"}, {"measurement": "renal function", "setting": "[1]; [5]", "value": "increased renal function (no more water retention/bloating)"}, {"measurement": "quality of sleep", "setting": "[1]; [6]", "value": "increased"}, {"measurement": "usage of sleep aids to counteract discomfort and pain from injuries", "setting": "[1]; [6]", "value": "reduced"}, {"measurement": "rate of achieving pain relief compared with other treatments (sinus rinse, other pain medications)", "setting": "[2]", "value": "significantly faster"}, {"measurement": "pain relief after repeated treatment", "setting": "[3]; 4 inhalations per treatment", "value": "complete relief"}, {"measurement": "pain relief after initial session", "setting": "[3]; 5 inhalations per treatment", "value": "complete pain relief"}, {"measurement": "time until pain recurred after the initial session", "setting": "[3]; 5 inhalations per treatment", "value": "approximately 12 hours"}, {"measurement": "time to complete remission of pain", "setting": "[3]; in vivo", "value": 48, "unit": "h"}, {"measurement": "time to remission relative to time with other analgesics prior to ethanol therapy", "setting": "[3]; in vivo", "value": "approximately 50%"}, {"measurement": "duration of brain effects (euphoria, and so forth)", "setting": "persons in the absence of significant pain", "value": "about 2 hours"}, {"measurement": "reported feeling (side effects)", "setting": "persons who take nebulized alcohol for pain", "value": "moderate sleepiness or drowsiness, but not “buzzed” or “intoxicated”"}]}
